Reference: patent publication US20240352494A1, “HETEROLOGOUS PRODUCTION OF […] YEASTS” (ADAMA CHILE SA, priority 2021, published 2024)

Tested on: A. thaliana seedlings
Assay: hypocotyl length assay (inhibition of hypocotyl elongation)
Format: in vivo, A. thaliana Col-0
Conditions: tZ standard at 0.14, 0.28 and 0.56 mg/L (mean of all treatments, no significant difference between them); seedlings grown in darkness, measured after 8 days
Description: The bioactivity of the produced cytokinins was tested in A. thaliana by hypocotyl length assay. This assay is based on the capacity of cytokinins to inhibit hypocotyl elongation in A. thaliana seedlings (Cary et al., 1995, Plant Physiol., 107 (4): 1075-1082). Seeds of A. thaliana Col-0 were surface sterilized, sown on 0.5× Murashige and Skoog (MS) medium (Murashige and Skoog, 1962, Physiol. Plant., 15(13):473-497) (0.7% agar) without sucrose, and stratified in darkness for 3 days at 4° C. Seedlings were grown in complete darkness in a growth cabinet at 21°° C. Hypocotyl lengths were determined after 8 days of growth, and at least 15 seedlings were measured for each treatment.

In the case of `C/C(=C\CNc1ncnc2nc[nH]c12)CO` [tZ standard, trans-zeatin], the “mean reduction in hypocotyl lengths” value is reported as 58%.
